Assays:
[1] = test system: PARP cleavage, CHOP, s-XBP1, HERPUD1 in ATC cells; experiment: PARP cleavage and UPR protein expression in ATC cells; format: cell-based; settings: EC50 dose for 72H; all three ATC cells; abrogated with OA
Protocol: Protein extraction and western blot analysis was performed as previously described (Copland J A, Marlow L A, Kurakata S, et al. Novel high-affinity PPARgamma agonist alone and in combination with paclitaxel inhibits human anaplastic thyroid carcinoma tumor growth via p21WAF1/CIP1. Oncogene. Apr 13 2006; 25(16):2304-2317). Primary antibodies included SCD1 (Sigma-Aldrich, #HPA012107), BiP (Cell Signaling, #3183), CHOP (Cell Signaling, #2895), sXBP1(Santa Cruz Biotechnology, #sc-7160), PARP(Cell Signaling, #9542), and β-actin (Sigma-Aldrich, #A5441).
Cells were plated in 4-chamber slides (Thermo Scientific) prior to drug treatment. […]
Exogenous application of MUFAs, such as oleic or palmitoleic acid, can rescue the proliferative defects generated by SCD1 inhibition as these are the primary products of SCD1 enzymatic activity (Roongta U V, Pabalan J G, Wang X, Ryseck R P, Fargnoli J, Henley B J, Yang W P, Zhu J, Madireddi M T, Lawrence R M, Wong T W, Rupnow B A. Cancer cell dependence on unsaturated fatty acids implicates stearoyl-CoA desaturase as a target for cancer therapy. Mol Cancer Res. 2011; 9(11):1551-61). […] Transcriptional upregulation of UPR markers including GADD45a (Growth arrest and DNA damage inducible transcript 1, DDIT1), DDIT3 (DNA damage inducible transcript 3, CHOP), and HERPUD1 homocysteine-inducible, ER stress inducible, ubiquitin-like-1) were evaluated by QPCR.

[2] = test system: THJ16T ATC cell xenograft; experiment: THJ16T xenograft model; format: in vivo, female athymic nu/nu mice
Protocol: Formalin-fixed, paraffin-embedded subject tissues were mounted on slides, blocked with Diluent (DakoCytomation) for 30 min, and then probed for SCD (Sigma-Aldrich, #HPA012107). IHC scoring was performed as previously described (von Roemeling C A, Marlow L A, Wei J J, et al. Stearoyl-CoA desaturase 1 is a novel molecular therapeutic target for clear cell renal cell carcinoma. Clin Cancer Res. May 1 2013; 19(9):2368-2380). Cases where insufficient tumor tissue presented were excluded. 20× images were obtained using Scanscope XT and Imagescope software.
1×10^6 THJ16T ATC cells were subcutaneously injected in female athymic nu/nu mice (Harlan Laboratories). Treatment was initiated once tumor volumes reached 50-100 mm^3. MF-438 was suspended in 0.5% carboxymethyl-cellulose containing strawberry drink flavoring(0.1 g/mL) in sterilized H2O at 25 mg/kg in a 100 μl dose, and administered via oral gavage once daily. Carfilzomib was solubilized in DMSO (4% of FC), suspended in 100% corn oil at 4 mg/kg per 50 uL dose and administered via intraperitoneal injection twice weekly on consecutive days. Tumor volume(0.5236[L*W*H]) and body weight were measured 2×/week. N=10 mice/group.
MF-438 was tested in combination with carfilzomib in vivo in a THJ16T xenograft model. […] J Clin Endocrinol Metab. 2010; 95(12):5338-47). […] Saline was administered as necessary. These adverse events resolved 24-48 hours after the second administration of carfilzomib. […] However, no other significant adverse events were observed. […] IHC analysis of tumors resected from each treatment group was performed.

CNC(=O)c1cccc(NC(=O)N2CCC(Oc3ccccc3Cl)CC2)c1 [A939572]
apoptosis as evaluated by PARP cleavage [1]: induced apoptosis

Cc1nnc(-c2ccc(N3CCC(Oc4ccccc4C(F)(F)F)CC3)nn2)s1 [MF-438, 2-methyl-5-(6-(4-(2-(trifluoromethyl)phenoxy)piperidin-1-yl)pyridazin-3-yl)-1,3,4-thiadiazole]
tumor response / mean tumor volume course ([2]; THJ16T xenograft): no tumor response
adverse events ([2]; mice bearing THJ16T xenograft): Discharge from the eye and squinting
survivin expression (IHC) ([2]; mouse, in vivo): induced survivin expression
CD31 (IHC), tumor vascularization ([2]; versus placebo control): trend toward decreased CD31
cleaved caspase-3 (IHC) ([2]; versus placebo control, only the combination group achieved statistical significance): increased cleaved caspase-3
HERPUD1 (IHC), marker for ER stress ([2]; versus placebo control, statistically significant combinatorial values): Increased HERPUD1

— patent US11325892B2, “Compounds and methods for treating cancer” (Mayo Foundation for Medical Education and Research, priority 2014, dated 2022)
